Data from patent publication US20220264883A1, “IMIDAZOTHIAZOLE COMPOUNDS AND METHODS FOR TREATING PLANT NEMATODE INFECTIONS” (The Governing Council of the University of Toronto, priority 2019, published 2022).
“And” between values parts separate entries of the source, which are not always exact repeats. Equal entries are not always repeated.

Legend:
[1] = system: HepG2 cells; experiment: HepG2 cell proliferation assay; type: cell-based, human; conditions: for IC50: Alamar Blue
Procedure: HepG2 cells, which are liver-derived, were counted using a haemocytometer, diluted, and seeded in […] to a final density of 5×10^4 cells/mL in 100 uL of RPMI-1640 medium supplemented with 10% heat inactivated fetal bovine serum (Gibco) and 1.2×Antibiotic-Antimycotic (Gibco). Cells were incubated at 37° C. with 5% CO2 for 24 hours. Subsequently, a 2-fold dilution series of test compound was added to cells at a final volume of 200 uL and incubated at 37° C. with 5% CO2 for 72 hours. After 72 hours, Alamar Blue (Invitrogen) was added to the Hep G2 cells at a final concentration of 0.5× and plates were incubated at 37° C. for 4 hours. Fluorescence was measured at Ex560 nm/Em590 nm and corrected for background from the medium. All assays were performed in technical triplicates and in at least two biological replicates. The IC50 value was defined as the concentration that inhibits cell proliferation by 50% of the untreated control cells.

[2] = system: C. elegans; experiment: C. elegans viability at a single concentration (Table 3); type: in vivo; conditions: Caenorhabditis elegans; 100 μM
Procedure: (§1) Forty microliters of an HB101 bacterial suspension in liquid NGM (see above) was added to each well of a 96-well flat-bottom culture plate, after which approximately 25 synchronized L1 worms, in 10 μl of M9 buffer (see ref. 59 for the recipe), were added to each well. The synchronized L1 worms were obtained from an embryo preparation performed the previous day (see ref. 59 for the protocol). For the L1 assays, 0.5 μl of chemical solution (or DMSO alone) was immediately added to the wells using a multichannel pipette, the final DMSO concentration is 1% (v/v). The worms were incubated for 3 days at 20° C. and the number of viable animals was counted. […] Although the counts were performed after 3 days of incubation in the chemical, it was noted that the L1s were dead within 24 hours of the addition of the chemicals. For the L2/L3 assays, the worms were incubated in the absence of chemical for 1 day at 20° C. until they reached the L2/L3 stage, at which point chemical was added as described above. The worms were then allowed to incubate for 2 days at 20° C. and the number of viable animals was counted as described for the L1 assay. For the L4 assays, the worms were incubated for 2 days at 20° C. before the addition of chemicals. The L4-stage worms were then incubated in chemical for an additional day before quantifying the number of viable animals. The adult assays were performed the same way as the L4 assays, however HT115 E. coli carrying the empty dsRNA expressing vector L4440 was used in place of HB101 and the worms were cultured at 25° C. as opposed to 20° C. for the entirety of the experiment. The HT115 suspension was made by concentrating a bacterial culture, with an OD600 of ˜ 0.8, five-fold with liquid NGM containing 1 mM IPTG and 100 μg/ml carbenicillin. The HT115 cells were induced with 1 mM IPTG for one hour before concentrating with NGM.
(§2) The ability of exemplary compounds of the application to kill C. elegans at 100 μM (except for compound If which was tested at 50 μM) and to affect the mobility of M. chitwoodi at 45 μM was tested as described above for M. incognita infective juveniles. Percent mobility was measured after 2 days of chronic exposure to test compounds (Table 3).

[3] = system: tomato plants; experiment: Root mass of tomato plants in the infectivity assays; type: in vivo, Solanum lycopersicum; conditions: 45 μM
Procedure: (§3) An M. incognita population originally collected from grape (Vitis vinifera) in Parlier, Calif., was used for all experiments, and they were maintained on tomato plants (Solanum lycopersicum ‘Rutgers’) as previously described^73. Infective J2 juveniles were collected as described in^73. For the infectivity assays, 90 grams of soil (1:1 sand:loam mix) was added to each cell of several 6-cell plastic garden packs. The soil was drenched with 18 mL of deionized water containing dissolved chemical or DMSO alone. 2,500 infective J2 juveniles were then added to the soil in 2 mL of deionized water, for a total water volume of 20 mL. The final concentration of the chemicals in water was 45 μM. The DMSO concentration varied from 0.1% to 0.8% (v/v) depending on the stock concentration of the chemical. The highest DMSO concentration was used as the DMSO control. The J2s were incubated in the soil and chemical for 24 hours, after which two- to three-week old tomato seedlings were transplanted into the soil (one plant per cell). Two replicates were performed for each chemical treatment, and four replicates were done for the DMSO controls. The whole experiment was replicated twice, in two different batches on two different days, for a total of four replicates for each chemical treatment, and eight replicates for the DMSO controls. Inoculated plants were grown for 8 weeks in a greenhouse, as described^73, under long-day conditions (16-h photoperiod) with 26/18° C. day/night temperatures. After 8 weeks, the plants were destructively harvested. The tops were removed and discarded, and roots were gently washed with water to remove adhering soil. Eggs were extracted by placing rinsed roots in 0.6% sodium hypochlorite and agitating at 300 rpm for 3 min. Roots were then rinsed over nested 250- and 25.4-μm sieves, with eggs collected from the latter and suspended in water. Roots were dried in a 65° C. oven for at least 24 hours, after which dry roots were weighed. The number of eggs from each plant root was counted on a dissection microscope using a haemocytometer, and the number of eggs per milligram of root was calculated by dividing the total egg number by the mass of the dried root material. An average was taken across the replicates performed on the same day, and then normalized to the DMSO control average. To calculate percent effectiveness at inhibiting reproduction, the normalized values were subtracted from 1, and then multiplied by 100. An average percent effectiveness value was then calculated across the two different batches carried out on different days.

[4] = system: M. chitwoodi; experiment: Root-knot nematode M. chitwoodi mobility (Table 3); type: in vivo, Meloidogyne chitwoodi; conditions: 45 μM, 2 days of chronic exposure
Procedure: (§4) M. incognita (Kofoid & White) Chitwood Race 1 (originally isolated in Maryland) was used for all experiments, and was maintained on pepper (Capsicum annuum L.) cv. PA-136 in a greenhouse as previously described^64. Infective J2 juveniles were collected as described in ref.65. The microwell dose-response experiments were carried out similarly to previously described protocols^64, 66. In brief, 100 J2s, in 10 μL of deionized water, were added to the wells of 96-well polystyrene plates, after which 190 μL of deionized water containing dissolved chemical, or DMSO alone, was added to each well. The chemicals were tested at 45 μM, and the final concentration of DMSO in each well was 0.5% (v/v). The wells were covered with a plastic adhesive strip, and the lids of the plates were sealed with parafilm. The plates were incubated at 25° C. The mobile fraction of worms was quantified by counting the number of mobile and immobile worms after 2 days of incubation, and then dividing the number of mobile worms by the total number of worms in the well. Three technical replicates were performed for each treatment, and an average value for the mobile fraction of worms was calculated across the three replicates. The percent effectiveness at inhibiting nematode movement was calculated by dividing the average value for the chemical treatment by the average value for the DMSO control, then subtracting this value from 1, and then multiplying by 100.
(§5) M. chitwoodi race 1 (the strain commonly found in the pacific northwest of the United States) was used for all experiments, and was maintained on tomato plants (Solanum lycopersicum ‘Rutgers’) as previously described^73. The M. chitwoodi in vitro assays were performed identically to the M. incognita in vitro assays (see above).
as §2

[5] = system: M. incognita; experiment: Meloidogyne incognita infectivity assays (tomato roots in soil); type: in vivo; conditions: 45 μM in soil, 8 weeks, eggs per mg root relative to DMSO control
Procedure: as §3

[6] = system: M. chitwoodi J2 larvae; experiment: Meloidogyne chitwoodi in vitro assays (J2 movement); type: in vivo; conditions: 45 μM, 2 days, relative to DMSO control
Procedure: as §4, §5

[7] = system: M. incognita J2 larvae; experiment: Meloidogyne incognita in vitro assays (J2 movement); type: in vivo; conditions: 45 μM, 2 days, relative to DMSO control
Procedure: as §4

[8] = system: C. elegans; experiment: C. elegans minimum lethal concentration dose-response; type: in vivo, Caenorhabditis elegans; conditions: for minimal effective concentration: Caenorhabditis elegans, C. elegans viability
Procedure: as §1
Compounds Ia to Im, dose-response assays were performed with C. elegans. 8 of the compounds killed C. elegans with minimum lethal concentrations less than or equal to 100 μM (Table 6). Compounds Ia, Ic, and Ij were the most potently lethal nematicides in this assay, having minimum lethal concentrations of 6.25 μM and below. The positive control nematicide tioxazafen killed nematodes at 3.13 μM and above.

[9] = system: Arabidopsis thaliana; experiment: Arabidopsis thaliana greening experiments; type: in vivo; conditions: 5, 15 and 45 micromolar, greening after 4 days
Procedure: Greening experiments were performed with Arabidopsis thaliana seeds of wild type Col-0; seeds were surface sterilized in bleach and plated onto 0.5×MS, 0.5% sucrose agar medium supplemented with compounds of interest at 5, 15 and 45 μM concentrations. After 4 d of stratification at 4° C., plates were transferred to a growth chamber (16 h/8 h, 150 μE/m^2) and greening recorded after 4 days. Pictures were recorded by camera (SONY a7s) with FE1.8/55 lens (FE 55 mm F1.8 ZA; SEL55F18Z). Experiments were performed in triplicate for each treatment.

[10] = system: M. incognita infective juveniles; experiment: Meloidogyne incognita dose-response experiments (infective J2 juveniles, FIG. 2); type: in vivo; conditions: 5, 15, 45 micromolar; third day after water rinse
Procedure: M. incognita (Kofoid & White) Chitwood Race 1 (originally isolated in Maryland) was used for all experiments, and were maintained on pepper (Capsicum annuum L.) cv. PA-136 in a greenhouse as previously described^64. Infective J2 juveniles were collected as described in ref. 65. The microwell dose-response experiments were carried out similarly to previously described protocols^64, 66. In brief, 100 J2 s, in 10 μL of deionized water, were added to the wells of 96-well polystyrene plates, after which 190 μL of deionized water containing dissolved chemical, or DMSO alone, was added to each well. The final concentration of DMSO in each well was 0.5% (v/v), except for the water only control which contained no DMSO and no added chemicals. The final concentrations of the chemicals for each dose-response experiment were 5, 15, and 45 μM. The wells were covered with a plastic adhesive strip, and the lids of the plates were sealed with parafilm. The plates were incubated at 25° C. The fraction of active worms was quantified by counting the number of mobile and immobile worms after 1 and 2 days of incubation, and then dividing the number of mobile worms by the total number of worms in the well. After 2 days of incubation, the chemicals were removed and replaced with deionized water (i.e. the water rinse) and the fraction of active worms was quantified 1 day later. A failure of the worms to recover after rinsing with water is consistent with them having been killed by the chemical treatment. Four technical replicates were performed for each treatment.

SMILES | HepG2 IC50 ([1]; 72 hours, approximate ppm equivalent) | IC50 ([1]; Homo sapiens, HepG2, 72 hours) | viability at 100 µM [2] | Normalized root mass (relative to DMSO control) [3] | RKN mobility [4] | % effectiveness at inhibiting reproduction of M. incognita [5] | % effectiveness at reducing M. chitwoodi movement [6] | % effectiveness at reducing M. incognita movement [7] | minimal effective concentration [8] | effect on health and greening of Arabidopsis thaliana plants (phytotoxicity) [9] | nematicidal activity on M. incognita infective juveniles [10] | IC50 ([1]; 72 hours) | times more potent at killing C. elegans than compound Ig ([8]; ratio of minimum lethal concentrations)
Cc1cn2cc(-c3ccc(Cl)cc3)nc2s1 [Compound Ig] | > 25 ppm | > 100 µM | 100% | 1.4 | 82.4% | 44.2% | 5.7% | 0.0% | > 24.9 µg/mL |  |  |  | 
Cc1csc2nc(-c3ccc(F)cc3)cn12 [Compound Ik, 6-(4-fluorophenyl)-3-methylimidazo[2,1-b]thiazole] |  |  |  | 1.0 |  | 0.6% |  |  | 50 µM and 11.6 µg/mL |  |  |  | 
Cc1csc2nc(-c3ccc(Br)cc3)cn12 [Compound Il, 6-(4-bromophenyl)-3-methylimidazo[2,1-b]thiazole] |  |  |  | 1.4 |  | 8.1% |  |  | 25 µM and 7.3 µg/mL |  |  |  | 
Cc1cn2cc(-c3ccc(Br)cc3)nc2s1 [Compound Im, 6-(4-bromophenyl)-2-methylimidazo[2,1-b]thiazole] |  |  |  | 1.1 |  | 1.2% |  |  | > 100 µM and > 29.3 µg/mL |  |  |  | 
Cc1cn2cc(-c3ccc(I)cc3)nc2s1 [Ih] |  |  | 95.4% | 1.3 | 82.5% | 25.7% | 5.6% | 0.0% | > 100 µM and > 34 µg/mL |  |  |  | 
Cc1cn2cc(-c3ccc(F)cc3)nc2s1 [Ii] |  |  | 100% |  | 28.9% |  |  | 0.0% | > 100 µM and > 23.2 µg/mL |  |  |  | 
O=C(NCCc1ncc(C(F)(F)F)cc1Cl)c1ccccc1C(F)(F)F [fluopyram, reference compound] |  |  |  |  |  |  |  |  |  | phytotoxic at 15 and 45 micromolar | most potent compound tested |  | 
c1ccc(-c2noc(-c3cccs3)n2)cc1 [tioxazafen, reference compound] |  |  |  | 1.1 |  | 43.7% | 40.0% | 55.5% |  | phytotoxic at 15 and 45 micromolar |  | > 100 µM | more than 32 times
